Our source for the inhibition, Ki and Ratio Ki values is ChEMBL document CHEMBL1140434, “1,2,4-Triazolo[1,5-a]quinoxaline as a versatile tool for the design of selective human A3 adenosine receptor antagonists: synthesis, biological evaluation, and molecular modeling studies of 2-(hetero)aryl- and 2-carboxy-substituted derivatives” (J Med Chem, 2005).

The target of experiment [1] is T1, Adenosine receptor A3 (Homo sapiens) (UniProt P0DMS8).
T1 sequence (whole entry): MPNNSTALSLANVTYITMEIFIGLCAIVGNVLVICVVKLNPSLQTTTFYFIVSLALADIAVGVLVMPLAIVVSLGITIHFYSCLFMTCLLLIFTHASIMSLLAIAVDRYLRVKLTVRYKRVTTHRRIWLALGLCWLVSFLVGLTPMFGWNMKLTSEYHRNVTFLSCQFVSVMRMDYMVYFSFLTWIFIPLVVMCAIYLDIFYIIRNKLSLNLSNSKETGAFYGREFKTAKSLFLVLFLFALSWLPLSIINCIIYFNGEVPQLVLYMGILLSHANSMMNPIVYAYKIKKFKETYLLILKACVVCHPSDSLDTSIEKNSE
Description: Percentage inhibition of [125I]AB-MECA binding to human adenosine A3 receptor expressed in CHO cells at 1 uM. The format is cell-based.

The subject of experiment [2] is Adenosine receptor A2a (Bos taurus). The experiment in a line: Percentage inhibition of [3H]CGS 21680 binding to adenosine A2A receptor in bovine striatal membranes at 20 uM. Particulars: Striatum, Membrane.
In experiment [3] the target is T2, Adenosine receptor A1 (Bos taurus) (UniProt P28190).
T2 sequence (whole entry): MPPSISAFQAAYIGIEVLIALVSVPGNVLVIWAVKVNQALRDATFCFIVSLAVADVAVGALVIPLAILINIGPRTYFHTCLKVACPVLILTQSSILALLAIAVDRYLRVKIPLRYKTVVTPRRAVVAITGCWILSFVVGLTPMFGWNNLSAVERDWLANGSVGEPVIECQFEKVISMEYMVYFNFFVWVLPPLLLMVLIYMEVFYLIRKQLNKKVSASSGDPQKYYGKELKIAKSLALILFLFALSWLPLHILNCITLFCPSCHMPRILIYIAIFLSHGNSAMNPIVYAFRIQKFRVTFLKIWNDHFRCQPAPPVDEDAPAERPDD
The experiment in a line: Percentage inhibition of [3H]CHA binding to adenosine A1 receptor in bovine cerebral cortical membranes at 10 uM. In kind it is cell membranes.

The target in the next experiment is T3, Adenosine receptor A3 (Homo sapiens, UniProt P0DMS8).
T3 sequence (P0DMS8 whole entry): T1 sequence (whole entry)
Description: Displacement of [125I]AB-MECA from human adenosine A3 receptor expressed in CHO cells. The format is cell-based. In general terms: Loss of bound radioactivity is the signal in a displacement assay; it reports binding, not function.

For experiment [4], the target named is Adenosine receptor A2a (Homo sapiens) (UniProt P29274). Description: Percentage inhibition of [3H]NECA binding to cloned human adenosine A2A receptor expressed in CHO cells at 10 uM. In kind it is cell-based.
Adenosine receptor A2a (Homo sapiens), sequence (P29274 whole entry): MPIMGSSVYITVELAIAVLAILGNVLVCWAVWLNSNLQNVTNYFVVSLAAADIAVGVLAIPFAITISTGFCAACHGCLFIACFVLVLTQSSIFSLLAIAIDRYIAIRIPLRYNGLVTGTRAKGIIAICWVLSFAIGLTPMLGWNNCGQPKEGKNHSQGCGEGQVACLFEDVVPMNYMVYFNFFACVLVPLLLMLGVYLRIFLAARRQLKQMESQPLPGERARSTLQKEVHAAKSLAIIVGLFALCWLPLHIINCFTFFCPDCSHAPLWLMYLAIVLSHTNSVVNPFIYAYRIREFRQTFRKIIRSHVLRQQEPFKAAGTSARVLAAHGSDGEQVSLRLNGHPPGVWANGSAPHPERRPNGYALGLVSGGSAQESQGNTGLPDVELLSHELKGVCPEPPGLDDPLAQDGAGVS
Experiment [5] deals with Adenosine receptors; A1 & A3 (Homo sapiens) (UniProt P30542+P0DMS8). Description: Selectivity for human adenosine A3 receptor over human adenosine A1 receptor. The format is protein assay.
Experiment [6] deals with Adenosine receptor A2a (Bos taurus). Description: Displacement of [3H]CGS 21680 from adenosine A2A receptor in bovine striatal membranes.
The target in experiment [7] is T4, Adenosine receptor A1 (Homo sapiens, UniProt P30542).
T4 sequence (P30542 whole entry): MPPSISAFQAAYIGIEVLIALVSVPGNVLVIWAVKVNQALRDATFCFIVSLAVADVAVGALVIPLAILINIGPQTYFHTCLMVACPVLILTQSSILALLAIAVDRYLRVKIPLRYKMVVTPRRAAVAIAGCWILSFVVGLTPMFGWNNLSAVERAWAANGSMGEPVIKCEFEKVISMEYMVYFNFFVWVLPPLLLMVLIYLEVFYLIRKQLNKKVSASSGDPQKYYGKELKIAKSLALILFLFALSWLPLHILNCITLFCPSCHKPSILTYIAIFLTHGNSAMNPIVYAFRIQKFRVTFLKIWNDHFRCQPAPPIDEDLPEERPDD
The experiment in a line: Displacement of [3H]CHA from cloned human adenosine A1 receptor expressed in CHO cells. The format is cell-based.

The target in experiment [8] is T5, Adenosine receptor A1 (Bos taurus, UniProt P28190).
T5 sequence (P28190 whole entry): T2 sequence (whole entry)
Description: Displacement of [3H]CHA from adenosine A1 receptor in bovine cerebral cortical membranes. In kind it is cell membranes.

Experiment [9] can be described thus: Selectivity for human adenosine A3 receptor over human adenosine A2A receptor.

Broadly, the inhibition is the percentage by which the read-out fell short of the control. A lower inhibition goes with a response near the control. Consider `CCOC(=O)c1nc2c(O)nc3ccc([N+](=O)[O-])cc3n2n1`, for which the inhibition in [1] turned out to be 0%; in experiment [2] it was 7.4%; in experiment [3], 58%.
What is called Ki is the dissociation constant of the complex between target and ligand, obtained from inhibition or displacement. A low value points to tighter binding. On to `Oc1nc2ccc(Cl)cc2n2nc(-c3ccco3)nc12`, for which the Ki stood at 0.006 µM at Adenosine receptor A3, 5.16 µM in [6], 2.74 µM at Adenosine receptor A1 [7] and 3.66 µM at Adenosine receptor A1 [8]. In addition, in experiment [4], the inhibition came to 33%. Moreover, the Ratio Ki is 457 in experiment [5] and over 1700 in experiment [9].
